Values after ≈ are worked out from the molar mass of the structure shown. Structures can show the parent of a compound that is named as a salt.
Assays:
Type in all cases: cell-based
[1] = test system: Pseudomonas aeruginosa (strain ATCC 9027); experiment: Minimum Inhibitory Concentration (MIC) Test; conditions: P. aeruginosa; compound emulsified in water with PLURONIC F68; 24 hours at 37° C.; none = no inhibitory activity noted
Procedure: (§1) The MIC Test was carried out using successively lower concentrations of compounds. Sterile tryptic soy broth (50 microliters; TSB, available from BD Dfico, Becton, Dickinson and Company, Franklin Lakes, N.J.) was deposited into each well of a sterile polystyrene 96-well microtitcr plate. Into each well in the first (leftmost) column of the plate, there was then deposited a 50 microliter aliquot (of known concentration) of a compound (i.e., a compound of Formula I, or a pharmaceutically acceptable salt thereof, or comparative compound). A 50 microliter aliquot of the mixture in the first (leftmost) well in the first row of the plate was transferred to the second well in the first row. A 50 microliter aliquot of the mixture in the second well in the first row was then transferred to the third well in the first row. The compound was successively diluted (1:1 dilution at each step) by transferring a 50 microliter aliquot from one well into the next well, across the row of the plate. This procedure was repeated for each row of the plate. Then, an overnight culture of Streptococcus mutans (strain ATCC 25175) was diluted 1:100 into sterile tryptic soy broth. A 50 microliter aliquot of the diluted S. mutans culture (10^5 CFU) was deposited into each well of the microtiter plate. The plate was then incubated at 37° C. for 24 hours in a sealed humidified chamber. The plate was then visually inspected to determine the lowest concentration of compound at which no bacterial growth was visible. This value was considered to be the minimum inhibitory concentration (MIC) for the compound. The test was repeated using Staphylococcus aureus (strain ATCC 6538) and Pseudomonas aeruginosa (strain ATCC 9027) in place of S. mutans.
(§2) A sample of each of N-dodecanoyl-D-glucosamine, N-tetradecanoyl-D-glucosamine, and N-hexadecanoyl-D-glucosamine (0.100 g each) was emulsified in water (10 g) using a nonionic surfactant (0.9 g; PLURONIC F68, available from BASF Corp., Mount Olive, N.J.). A control sample was made by combining the nonionic surfactant (0.9 g) and water (10 g). Each of the four samples was evaluated using the Minimum Inhibitory Concentration (MIC) Test described above with S. mutans, S. aureus, and P. aeruginosa. In Table 5, “F68” refers to the nonionic surfactant used in the Comparative Examples, and “none” means that no inhibitory activity was noted.

[2] = test system: Staphylococcus aureus (strain ATCC 6538); experiment: Minimum Inhibitory Concentration (MIC) Test; conditions: S. aureus; compound emulsified in water with PLURONIC F68; 24 hours at 37° C.; none = no inhibitory activity noted
Procedure: as §1, §2

[3] = test system: Streptococcus mutans (strain ATCC 25175); experiment: Minimum Inhibitory Concentration (MIC) Test; conditions: ATCC25175, S. mutans, compound emulsified in water with PLURONIC F68, 24 hours at 37° C., none = no inhibitory activity noted
Procedure: as §1, §2

[4] = test system: Streptococcus mutans culture (ATCC 25175); experiment: Quantitative Biofilm Inhibition Test; conditions: 1 weight percent compound, broth with 1.0 weight percent sucrose, approx. twenty hours at 37° C., average OD at 550 nm as percentage of control (100%)
Procedure: Compounds of the dental compositions of the invention, and comparative compounds, were evaluated for biofilm inhibition activity. Composite dental restorative (available under the trade designation “FILTEK SUPREME” from 3M ESPE Dental Products, St. Paul, Minn.) was placed in a 15 millimeter by 1 millimeter stainless steel die. […] While the die containing the composite restorative was under compression, the composite was irradiated for two minutes using a Model ACE light source (available from SCHOTT North America, Inc., Auburn, N.Y.). The discs of cured composite restorative were then further cured using a Model UniXS light box (available from Heraeus Kulzer, Inc., Armonk, N.Y.) for 1.5 minutes.
The samples were incubated at 37° C. for approximately twenty hours, after which time the cured discs were removed from the broth and were gently rinsed with water. Each disc was placed in a separate test tube containing five milliliters of 1M aqueous sodium hydroxide solution, and each test tube was then sonicated for two minutes using a model SH1012-40-8 ultrasonic generator (manufactured by Branson Ultrasonics Corp., Danbury, Conn.) for two minutes to dislodge biofilm on the disc. The optical absorbance (optical density) of each aqueous sodium hydroxide solution was then measured at 550 nm using a Model ULTROSPEC III UV-visible spectrophotometer (manufactured by Pharmacia AB, Uppsala, Sweden). For each compound of the dental composition, five discs were separately incubated in broth and were evaluated separately to provide five optical density measurements. The average of the five optical density measurements was then calculated. […] The average optical density of the control or comparative samples was determined as described above. […] The ratio was considered to be proportional to the average amount of biofilm on the five cured discs, i.e., relatively low average optical density ratio was considered to be indicative of inhibition of biofilm formation. The ratio for the control was 100%.
(§3) The Quantitative Biofilm Inhibition Test was carried out using five compounds of the dental composition and eleven comparative compounds, each at a concentration of 1 weight percent. […] In addition, the Qualitative Biofilm Inhibition Test was carried out for each Example and Comparative Example, in which each disc was visually examined before it was placed in the tube containing the aqueous sodium hydroxide solution.

[5] = test system: Streptococcus mutans culture (ATCC 25175); experiment: Qualitative Biofilm Inhibition Test; set-up: key: +: refers to a visual assessment that a compound inhibited biofilm formation; −: refers to a visual assessment that either a compound did not inhibit biofilm formation, or that bacteria grew in the culture broth; conditions: 1 weight percent compound; visible biofilm on disc after incubation and rinse
Procedure: as §3, with “During the procedure for the Quantitative Biofilm Inhibition Test, each cured disc was visually examined after it was removed from the broth (and rinsed with water) and before it was placed in a test tube containing five milliliters of 1M aqueous sodium hydroxide solution. The presence or absence of visible biofilm on a disc was noted. The” for “The”

[6] = test system: Streptococcus mutans culture (ATCC 25175); experiment: Biofilm Inhibition Test: concentration of compound to inhibit biofilm formation at varied sucrose; conditions: tested at 50 or 150 millimolar
Procedure: Compounds of the dental compositions of the invention, and comparative compounds, were evaluated for biofilm inhibition activity. Composite dental restorative (available under the trade designation “FILTEK SUPREME” from 3M ESPE Dental Products, St. Paul, Minn.) was placed in a 15 millimeter by 1 millimeter stainless steel die. The open ends of the die were then covered with polyester film and the die was subjected to a pressure of 68.95 MPa using a hydraulic press. While the die containing the composite restorative was under compression, the composite was irradiated for two minutes using a Model ACE light source (available from SCHOTT North America, Inc., Auburn, N.Y.). The discs of cured composite restorative were then further cured using a Model UniXS light box (available from Heraeus Kulzer, Inc., Armonk, N.Y.) for 1.5 minutes.
The cured discs of composite restorative were then immersed in ten milliliters of Streptococcus mutans culture (ATCC 25175; 10^6 CFU/mL) prepared in brain heart infusion broth that contained 1.0 weight percent sucrose and 1 weight percent of a compound of the dental composition. The samples were incubated at 37° C. for approximately twenty hours, after which time the cured discs were removed from the broth and were gently rinsed with water. Each disc was placed in a separate test tube containing five milliliters of 1M aqueous sodium hydroxide solution, and each test tube was then sonicated for two minutes using a model SH1012-40-8 ultrasonic generator (manufactured by Branson Ultrasonics Corp., Danbury, Conn.) for two minutes to dislodge biofilm on the disc. The optical absorbance (optical density) of each aqueous sodium hydroxide solution was then measured at 550 nm using a Model ULTROSPEC III UV-visible spectrophotometer (manufactured by Pharmacia AB, Uppsala, Sweden). For each compound of the dental composition, five discs were separately incubated in broth and were evaluated separately to provide five optical density measurements. The average of the five optical density measurements was then calculated. […] The average optical density of the control or comparative samples was determined as described above. The ratio, expressed as a percentage, of the average optical density for each compound sample to the average optical density for a control sample was calculated by dividing the average optical density for each compound sample by the average optical density for a control sample and multiplying the result by one hundred. The ratio was considered to be proportional to the average amount of biofilm on the five cured discs, i.e., relatively low average optical density ratio was considered to be indicative of inhibition of biofilm formation. The ratio for the control was 100%.
During the procedure for the Quantitative Biofilm Inhibition Test, each cured disc was visually examined after it was removed from the broth (and rinsed with water) and before it was placed in a test tube containing five milliliters of 1M aqueous sodium hydroxide solution. The presence or absence of visible biofilm on a disc was noted.
The Biofilm Inhibition Test was carried out, using four compounds of the dental composition, in broth containing 1.0, 2.5, or 5.0 weight percent sucrose and the exemplary compounds of the dental composition at a concentration of either 50 millimolar or 150 millimolar. In Table 2, the millimolar concentration of compound that inhibited biofilm formation is given for each concentration of sucrose. An entry of “n/t” means that the compound was not tested in broth containing the corresponding concentration of sucrose.

Streptococcus mutans = experiment: Bacterial Kill Rate Test
Procedure: Compounds of the dental compositions of the invention were evaluated for extent of bacterial kill in culture. Overnight cultures of Streptococcus mutans in brain heart infusion broth (10^6 CFU/mL) was mixed with a 0.1 weight percent, 0.5 weight percent, or 1.0 weight percent aqueous solution of each compound of the dental composition. After a period of 2, 5, or 10 minutes, 1.0 mL of the mixture was transferred via pipette into a first tube containing 9.0 mL of Letheen broth to provide a 10^−1 dilution. The contents of the tube were mixed using a vortex mixer. A 1.0 mL aliquot of this sample was transferred via pipette into a second tube containing 9.0 mL of Letheen broth to provide a 10^−2 dilution. A 0.1 mL aliquot of each dilution was plated and spread in duplicate on sheep blood agar in Petri dishes, using a “hockey stick” applicator, to provide 10^−2 and 10^−3 dilutions, respectively, on each plate. The plates were incubated at 37° C. for a period of 48 to 72 hours, and then the colony forming units were counted. The CFU counts were compared and the log reduction in the counts were calculated. In Table 3, the bacteria count reduction (log reduction) is the difference between the log of the initial bacteria count and the log of the bacteria count after 2, 5, and 10 minutes.

| Structure (SMILES) | MIC [1] | MIC [2] | MIC [3] [µg/mL] | OD Ratio [4] [%] | Visual Assessment [5] | Concentration of Compound to Inhibit Biofilm Formation ([6]; 1 wt% Sucrose) [mM] | Concentration of Compound to Inhibit Biofilm Formation ([6]; 2.5 wt% Sucrose) [mM] | Concentration of Compound to Inhibit Biofilm Formation ([6]; 5 wt% Sucrose) [mM] | Bacteria Count Reduction (log reduction) (Streptococcus mutans; 0.1 wt % compound, 2 min.) | Bacteria Count Reduction (log reduction) (Streptococcus mutans; 0.1 wt % compound, 5 min.) | Bacteria Count Reduction (log reduction) (Streptococcus mutans; 0.1 wt % compound, 10 min.) | Bacteria Count Reduction (log reduction) (Streptococcus mutans; 0.5 wt % compound, 2 min.) | Bacteria Count Reduction (log reduction) (Streptococcus mutans; 0.5 wt % compound, 5 min.) | Bacteria Count Reduction (log reduction) (Streptococcus mutans; 0.5 wt % compound, 10 min.) | Bacteria Count Reduction (log reduction) (Streptococcus mutans; 1.0 wt % compound, 2 min.) | Bacteria Count Reduction (log reduction) (Streptococcus mutans; 1.0 wt % compound, 5 min.) | Bacteria Count Reduction (log reduction) (Streptococcus mutans; 1.0 wt % compound, 10 min.) | activity at 1 % w/w ([4]; Streptococcus mutans, ATCC25175, 20 h, read-out: OD Ratio) [%] |
| --- | --- | --- | --- | --- | --- | --- | --- | --- | --- | --- | --- | --- | --- | --- | --- | --- | --- | --- |
| N[C@H]1C(O)O[C@H](CO)[C@@H](O)[C@@H]1O (stereo partly drawn) [Glucosamine HCl, D-glucosamine] |  |  |  | 0 | + | 50 | 50 | 50 | 1.03 | 0.94 | 0.97 | 0.99 | 0.98 | 0.93 | 0.93 | 0.99 | 0.97 |  |
| N[C@H]1C(O)O[C@H](COP(=O)(O)O)[C@@H](O)[C@@H]1O (stereo partly drawn) [Glucosamine-6-Phosphate, D-glucosamine-6-phosphate] |  |  |  |  | + | 50 |  |  | 0.99 | 0.88 | 1.06 | 0.95 | 1.11 | 1.23 | 1.12 | 1.41 | 2.09 | 2 |

The next lines start with results.

| MIC [1] | MIC [2] | MIC [3] [µg/mL] | Structure (SMILES) | OD Ratio [4] [%] | Visual Assessment [5] | Concentration of Compound to Inhibit Biofilm Formation ([6]; 1 wt% Sucrose) [mM] | Concentration of Compound to Inhibit Biofilm Formation ([6]; 2.5 wt% Sucrose) [mM] | Concentration of Compound to Inhibit Biofilm Formation ([6]; 5 wt% Sucrose) [mM] | Bacteria Count Reduction (log reduction) (Streptococcus mutans; 0.1 wt % compound, 2 min.) | Bacteria Count Reduction (log reduction) (Streptococcus mutans; 0.1 wt % compound, 5 min.) | Bacteria Count Reduction (log reduction) (Streptococcus mutans; 0.1 wt % compound, 10 min.) | Bacteria Count Reduction (log reduction) (Streptococcus mutans; 0.5 wt % compound, 2 min.) | Bacteria Count Reduction (log reduction) (Streptococcus mutans; 0.5 wt % compound, 5 min.) | Bacteria Count Reduction (log reduction) (Streptococcus mutans; 0.5 wt % compound, 10 min.) | Bacteria Count Reduction (log reduction) (Streptococcus mutans; 1.0 wt % compound, 2 min.) | Bacteria Count Reduction (log reduction) (Streptococcus mutans; 1.0 wt % compound, 5 min.) | Bacteria Count Reduction (log reduction) (Streptococcus mutans; 1.0 wt % compound, 10 min.) | activity at 1 % w/w ([4]; Streptococcus mutans, ATCC25175, 20 h, read-out: OD Ratio) [%] |
| --- | --- | --- | --- | --- | --- | --- | --- | --- | --- | --- | --- | --- | --- | --- | --- | --- | --- | --- |
| None | None | 78 (≈ 216 µM) | CCCCCCCCCCCC(=O)N[C@H]1C(O)O[C@H](CO)[C@@H](O)[C@@H]1O (stereo partly drawn) [N-dodecanoyl-D-glucosamine] |  |  |  |  |  |  |  |  |  |  |  |  |  |  |  |
| None | None | 78 (≈ 200 µM) | CCCCCCCCCCCCCC(=O)N[C@H]1C(O)O[C@H](CO)[C@@H](O)[C@@H]1O (stereo partly drawn) [N-tetradecanoyl-D-glucosamine] |  |  |  |  |  |  |  |  |  |  |  |  |  |  |  |
| None | None | 39 (≈ 93.4 µM) | CCCCCCCCCCCCCCCC(=O)N[C@H]1C(O)O[C@H](CO)[C@@H](O)[C@@H]1O (stereo partly drawn) [N-hexadecanoyl-D-glucosamine] |  |  |  |  |  |  |  |  |  |  |  |  |  |  |  |

— patent US8329674B2, “Film forming dental compositions and related methods” (3M Innovative Properties Company, priority 2007, dated 2012)
